Laboratory results: article PMC11271312 (Nature Communications, 2024)

What was measured:
[1] = 80% pooled plasma from rats and 20% PBS (pH 7.4); settings: rat, 37 °C, up to […]
[2] = 80% pooled plasma from dogs and 20% PBS (pH 7.4); settings: dog, 37 °C, up to […]
[3] = 80% pooled plasma from humans and 20% PBS (pH 7.4); settings: human, 37 °C, up to […]
[4] = plasma from minipigs dosed intravenously with insulin icodec (2 nmol/kg); settings: Göttingen Minipigs, up to 10 days after dosing
[5] = 80% pooled plasma from minipigs and 20% PBS (pH 7.4); settings: minipig, 37 °C, up to […]

Substance	fragment found [1]	fragment found [2]	fragment found [3]	fragment found [4]	fragment found [5]
desB30 | C18 diacid	B-chain (internal disulphide bond connecting Cys 7 with Cys 19), 2.5 h	–	–	–	–
A14E B16H B25H B29Nε-C20 diacid-LγGlu–2xAdo desB30 human insulin	insulin B-chain with internal disulphide Cys 7–Cys 19, 24 h	insulin B-chain with internal disulphide Cys 7–Cys 19, 96 h	insulin B-chain with internal disulphide Cys 7–Cys 19, 24 h	free insulin icodec B-chain (disulphide Cys 7–Cys 19)	insulin B-chain with internal disulphide Cys 7–Cys 19, 48 h
A14E, desB30 | C18 diacid	B-chain (internal disulphide bond connecting Cys 7 with Cys 19), 24 h	–	–	–	–
A14E, B25H, desB30 | C18 diacid	B-chain (internal disulphide bond connecting Cys 7 with Cys 19), 48 h	–	–	–	–
B16H, desB30 | C18 diacid	B-chain (internal disulphide bond connecting Cys 7 with Cys 19), 24 h	B-chain (internal disulphide bond connecting Cys 7 with Cys 19), 24 h	B-chain (internal disulphide bond connecting Cys 7 with Cys 19), 24 h	–	B-chain (internal disulphide bond connecting Cys 7 with Cys 19), 5 h
A14E, B25H, desB30 | C20 diacid	B-chain (internal disulphide bond connecting Cys 7 with Cys 19), 24 h	–	B-chain (internal disulphide bond connecting Cys 7 with Cys 19), 96 h	–	B-chain (internal disulphide bond connecting Cys 7 with Cys 19), 168 h
B25H, desB30 | C18 diacid	B-chain (internal disulphide bond connecting Cys 7 with Cys 19), 5 h	–	–	–	–
